Results as given in patent US20240100083A1, “IMMUNOTHERAPY FOR CANCER” (THE PROVOST, FELLOWS, FOUNDATION SCHOLARS, AND THE OTHER …, priority 2020, published 2024).

System: B16 melanoma cells
Assay: costimulatory/co-inhibitory molecule expression on B16 melanoma cells (flow cytometry)
Format: cell-based
Parameters: key to Upregulated (√)/No change (—) Costimulatory MHC CI / Upregulated (√)/No change (—) Costimulatory CD40 / Upregulated (√)/No change (—) Costimulatory CD80 / Upregulated (√)/No change (—) Costimulatory CD86 / Upregulated (√)/No change (—) Coinhibitory TIGIT / Upregulated (√)/No change (—) Coinhibitory PD-L1 / Upregulated (√)/No change (—) Coinhibitory PD-1: upregulated (√); no change (—)
Settings: 24 hours, C90, C100, protasan 40 μg/ml, CpG 4 μg/ml, Etoposide 200 μM, DMXAA 10 μg/ml; for Fold increase in MFI Coinhibitory PD-1 / Fold increase in MFI Coinhibitory PD-L1 / Fold increase in MFI Coinhibitory TIGIT / Fold increase in MFI Costimulatory CD40 / Fold increase in MFI Costimulatory CD80 / Fold increase in MFI Costimulatory CD86 / Fold increase in MFI Costimulatory MHC CI: compared to unstimulated control
Experimental: Flow cytometric analysis of costimulatory molecule expression on B16-F10 cells: 2×10^5 B16 melanoma cells were stimulated with media or 40 μg/ml, C90, C100 or protasan for 24 hours in 24 well plates. Cells were removed from wells using ice cold PBS-EDTA, transferred to labelled FACS tubes and washed with 2 mL of PBS. Cells were stained with BV510 viability dye (1 in 1000 dilition) for 15 minutes at room temperature. Cells were then washed in PBS, and stained for cell surface markers for 30 minutes at room temperature. Cells were then washed in PBS, resuspended in […] of FACs buffer, with samples acquired via BD FACSCanto and the data analysed using Flowjo™ software (Treestar, Oregon).

Compound	Upregulated (√)/No change (—) Coinhibitory PD-1	Upregulated (√)/No change (—) Coinhibitory PD-L1	Upregulated (√)/No change (—) Coinhibitory TIGIT	Upregulated (√)/No change (—) Costimulatory CD40	Upregulated (√)/No change (—) Costimulatory CD80	Upregulated (√)/No change (—) Costimulatory CD86	Upregulated (√)/No change (—) Costimulatory MHC CI	Fold increase in MFI Coinhibitory PD-1 [fold]	Fold increase in MFI Coinhibitory PD-L1 [fold]	Fold increase in MFI Coinhibitory TIGIT [fold]	Fold increase in MFI Costimulatory CD40 [fold]	Fold increase in MFI Costimulatory CD80 [fold]	Fold increase in MFI Costimulatory CD86 [fold]	Fold increase in MFI Costimulatory MHC CI [fold]
Cc1ccc2c(=O)c3cccc(CC(=O)O)c3oc2c1C [DMXAA]	√	√	√	—	—	—	√	1.2	1.2	1.3	1.1	1.0	1.1	1.2
COc1cc([C@@H]2c3cc4c(cc3[C@@H](O[C@@H]3O[C@@H]5CO[C@@H](C)O[C@H]5[C@H](O)[C@H]3O)[C@H]3COC(=O)[C@H]23)OCO4)cc(OC)c1O [Etoposide]	—	√	√ √	√ √	√ √	√ √	√ √ √	1.0	1.6	1.7	1.9	2.2	1.9	3.0
